This note sets out measurements from ChEMBL document CHEMBL1131863, “Synthesis and antibacterial activity of HMR 3647 a new ketolide highly potent against erythromycin-resistant and susceptible pathogens” (1999).

Each structure is given as a SMILES string. Values after ≈ are worked out from the molar mass of the structure shown. Active and inactive are the calls of the source. The calls are words filed in the database; no cut-off is given here.

Usually ED50 stands for the dose at which the effect has come halfway, by size or by number of responders. High values mean a need for a large dose, low ones an effect at a small dose.

The subject of assay [1] is Haemophilus influenzae. In words: (§1) The compound was tested in vivo for antibacterial activity against AmpR beta(-) Haemophilus influenza 351TO19 in mice after oral administration. It is filed as functional.
For assay [2], the system named is Haemophilus influenzae. In words: (§2) The compound was tested in vivo for antibacterial activity against AmpR beta(+) Haemophilus influenza 351RD7 in mice after oral administration. Format: functional.
For assay [3], the system named is Haemophilus influenzae. In words: (§3) The compound was tested in vivo for antibacterial activity against Haemophilus influenza 351GR1 in mice after oral administration. Format: functional.
For assay [4], the system named is Streptococcus pneumoniae. In words: The compound was tested in vitro for antibacterial activity against erythromycin susceptible Streptococcus pneumoniae 032UC1. Format: functional.
The test system of assay [5] is Mus musculus. In words: The compound was tested in vivo for antibacterial activity against erythromycin susceptible Streptococcus pyogenes 02A1UC1 in mice after oral administration. It is filed as functional.
For assay [6], the system named is Mus musculus. Briefly: The compound was tested in vivo for antibacterial activity against inducibly erythromycin resistant Streptococcus pneumoniae 030RO1 in mice after oral administration. It is filed as functional.
Assay [7] relates to Haemophilus influenzae. Briefly: The compound was tested in vitro for antibacterial activity against 39 strains of Haemophilus influenza AmpR; Value is 2.5/10. Format: functional, organism-based.
For assay [8], the system named is Streptococcus pneumoniae. Briefly: The compound was tested in vitro for antibacterial activity against constitutively erythromycin resistant Streptococcus pneumoniae 030PW23c. It is filed as functional.
Assay [9] has as its system Streptococcus pneumoniae. In words: The compound was tested in vitro for antibacterial activity against 53 strains of Streptococcus pneumoniae PenR Value is 0.3/40. Format: functional, organism-based.
Assay [10] relates to Mus musculus. Described as §1. It is filed as functional.
Assay [11] relates to Mus musculus. In words: The compound was tested in vivo for antibacterial activity against constitutively erythromycin resistant Streptococcus pneumoniae 030Cr29 in mice after oral administration. It is filed as functional.
The subject of assay [12] is Streptococcus pneumoniae. In words: The compound was tested in vitro for antibacterial activity against constitutively erythromycin resistant Streptococcus pneumoniae 030SJ1. Format: functional.
The subject of assay [13] is Mus musculus. In words: The compound was tested in vivo for antibacterial activity against inducibly erythromycin resistant Staphylococcus aureus 011GO3 in mice after oral administration. Format: functional.
Assay [14] relates to Mus musculus. Briefly: The compound was tested in vivo for antibacterial activity against constitutively erythromycin resistant Streptococcus pneumoniae 030SJ6 in mice after oral administration. It is filed as functional.
Assay [15] relates to Haemophilus influenzae. Briefly: The compound was tested in vitro for antibacterial activity against 47 strains of Haemophilus influenza AmpS; Value is 1.2/5. Format: functional, organism-based.
Assay [16] relates to Mus musculus. In words: The compound was tested in vivo for antibacterial activity against constitutively erythromycin resistant Streptococcus pneumoniae 030SJ1 in mice after oral administration. It is filed as functional.
Assay [17] has as its system Mus musculus. The description is as §2. Format: functional.
Assay [18] deals with Streptococcus pneumoniae. Briefly: The compound was tested in vitro for antibacterial activity against 40 strains of constitutively erythromycin resistant Streptococcus pneumoniae Value is 40/40. It is filed as functional, organism-based.
The subject of assay [19] is Staphylococcus aureus. Briefly: The compound was tested in vitro for antibacterial activity against inducibly erythromycin resistant Staphylococcus aureus 011GO25i. It is filed as functional.
Assay [20] concerns Staphylococcus aureus. Briefly: The compound was tested in vitro for antibacterial activity against constitutively erythromycin resistant Staphylococcus aureus 011CB20. Format: functional.
Assay [21] relates to Streptococcus pneumoniae. Briefly: The compound was tested in vitro for antibacterial activity against 32 strains of inducibly erythromycin resistant Streptococcus pneumoniae Value is 40/40. Format: functional, organism-based.
A further assay has as its system Streptococcus pyogenes. Briefly: The compound was tested in vitro for antibacterial activity against erythromycin susceptible Streptococcus pyogenes 02A1UC1. Format: functional.
In assay [22] the test system is Mus musculus. The description is as §3. Format: functional.
The test system of assay [23] is Mus musculus. In words: The compound was tested in vivo for antibacterial activity against erythromycin susceptible Streptococcus pneumoniae 032UC1 in mice after oral administration. It is filed as functional.
Another assay has as its system Staphylococcus sp. Briefly: The compound was tested in vitro for antibacterial activity against 66 strains of inducibly erythromycin resistant Staphylococci; Value is 40/40. It is filed as functional, organism-based.
The subject of assay [24] is Haemophilus influenzae. In words: The compound was tested in vitro for antibacterial activity against Haemophilus influenza 351HT3. Format: functional.
In the next assay the test system is Escherichia coli. In words: The compound was tested in vitro for antibacterial activity against Escherichia coli 250 UCS. It is filed as functional.
Assay [25] concerns Streptococcus pneumoniae. Briefly: The compound was tested in vitro for antibacterial activity against constitutively erythromycin resistant Streptococcus pneumoniae 030CR18c. It is filed as functional.
Assay [26] relates to Mus musculus. In words: The compound was tested in vivo for antibacterial activity against erythromycin susceptible Staphylococcus aureus 011UC4 in mice after oral administration. It is filed as functional.
In another assay the test system is Streptococcus sp. Briefly: The compound was tested in vitro for antibacterial activity against 31 strains of erythromycin resistant Streptococci; Value is 1.2/40. Format: functional, organism-based.
Assay [27] deals with Mus musculus. Briefly: The compound was tested in vivo for antibacterial activity against constitutively erythromycin resistant Streptococcus pneumoniae 030MV2 in mice after oral administration. It is filed as functional.
Assay [28] relates to Staphylococcus aureus. In words: The compound was tested in vitro for antibacterial activity against erythromycin susceptible Staphylococcus aureus 011UC4. It is filed as functional.
Assay [29] has as its system Streptococcus pneumoniae. In words: The compound was tested in vitro for antibacterial activity against inducibly erythromycin resistant Streptococcus pneumoniae 030J5i. It is filed as functional.

On to `CC1(C)S[C@@H]2[C@H](NC(=O)[C@H](N)c3ccccc3)C(=O)N2[C@H]1C(=O)O` [AMPICILLIN], for which the ED50 in the assay with Haemophilus influenzae [1] is 39 mg/kg; in the assay with Haemophilus influenzae [2] it was more than 600 mg/kg; in the assay on Haemophilus influenzae [3], 5.5 mg/kg.
As to `CC[C@H]1OC(=O)[C@H](C)[C@@H](O[C@H]2C[C@@](C)(OC)[C@@H](O)[C@H](C)O2)[C@H](C)[C@@H](O[C@@H]2O[C@H](C)C[C@H](N(C)C)[C@H]2O)[C@](C)(OC)C[C@@H](C)C(=O)[C@H](C)[C@@H](O)[C@]1(C)O` [CLARITHROMYCIN], the MIC is 0.04 µg/mL (≈ 0.0535 µM) with Streptococcus pneumoniae [4]; 40 µg/mL (≈ 53.5 µM) with Streptococcus pneumoniae [8]; 40 µg/mL (≈ 53.5 µM) against Streptococcus pneumoniae [12]; 40 µg/mL (≈ 53.5 µM) in the assay on Staphylococcus aureus [19]; 40 µg/mL (≈ 53.5 µM) with Staphylococcus aureus [20]; 0.08 µg/mL (≈ 0.107 µM) against Streptococcus pyogenes. Also, the MIC in the assay on Haemophilus influenzae [24] was 5 µg/mL (≈ 6.68 µM); with Escherichia coli, 40 µg/mL (≈ 53.5 µM); against Streptococcus pneumoniae [25], 40 µg/mL (≈ 53.5 µM); in the assay with Staphylococcus aureus [28] it was 0.3 µg/mL (≈ 0.401 µM); against Streptococcus pneumoniae [29], 40 µg/mL (≈ 53.5 µM). The median effective dose (ED50) in the assay on Mus musculus [5] was 16 mg/kg; in the assay on Mus musculus [6] it was more than 50 mg/kg; with Mus musculus [10] it was more than 300 mg/kg; with Mus musculus [11], more than 50 mg/kg; in the assay with Mus musculus [13], 55 mg/kg; with Mus musculus [14], more than 50 mg/kg. Moreover, the median effective dose (ED50) in the assay with Mus musculus [16] was more than 50 mg/kg; with Mus musculus [17], 120 mg/kg; with Mus musculus [22] it was 71 mg/kg; with Mus musculus [23], 7.5 mg/kg; in the assay on Mus musculus [26], 6 mg/kg; with Mus musculus [27], more than 50 mg/kg. Further, the MIC50/MIC90 entry in the assay on Haemophilus influenzae [7], in the assay on Streptococcus pneumoniae [9], in the assay on Haemophilus influenzae [15], in the assay on Streptococcus pneumoniae [18], with Streptococcus pneumoniae [21] and in the assay on Staphylococcus sp. was “Active” each time. Besides, the MIC50/MIC90 entry with Streptococcus sp. was “Active”.
